Assay results reported in paper PMC12271471, “Direct synthesis of mycophenolic acid aryl esters with antioxidant and antiproliferative properties” (Scientific Reports, 2025).

Experiments:
T-Jurkat cells = experiment: VPD450 proliferation test (flow cytometry) on T-Jurkat cells; assay type: cell-based, human; settings: for EC50: Homo sapiens, T-Jurkat, 48 h, mean ± SD; for SI selectivity index T-Jurkat (IC50/EC50): ratio between IC50 (XTT) and EC50 (VPD450) on T-Jurkat cell line; for IS internal selectivity (EC50 PBMCs / EC50 T-Jurkat): ratio between VPD450 EC50 values for PBMCs and T-Jurkat cell line
Procedure: These values indicate the concentration of any compound at which proliferation of PBMCs (healthy cells), and T-Jurkat cells (T-cell leukemia), is inhibited by 50% compared to the control. Cells were treated with the compounds for 72 h (PBMCs) or 48 h (T-Jurkat), followed by a […] VPD450 test. The results are presented in ESI Fig. S3 as proliferation curves concerning concentration.
ESI Figure 3. Concentration-dependent change in proliferation under the treatment of ester derivatives of MPA. (A) VPD450-labelled PBMCs were cultured in the presence of different concentrations (100; 50; 25; 10; 1; 0.1, and 0.01 μM) of MPA, MMF, and ester derivatives, and stimulated with magnetic beads coated with anti-CD3 and anti-CD28 antibodies for 72 hours. (B) VPD450-labelled T-Jurkat cells were cultured in the presence of different concentrations (100; 10; 1; 0.1 and 0.01 μM) of MPA and ester derivatives for 48 hours. The plots were separated based on the type of ester derivative (P or MP). Cell proliferation was analyzed using flow cytometry. The results are expressed […]
(1 picture or pasted object on this page, not shown here) […]
inhibited cell viability by more than 50%. Each experiment was conducted in triplicate, and the final […]
VPD450 dye-based in vitro cell proliferation test
PBMCs and T-Jurkat cells were washed twice with warm PBS (37°C), re-suspended in fresh PBS at a final concentration of 10-30∙10^6 cells/ml, and labelled with 1 µl of VPD450 (BD Biosciences) at 37°C for 15 minutes, with vortexing every 5 minutes to ensure uniform staining. Subsequently, cells were washed with PBS, then with the complete medium (X-VIVO20 for PBMCs and RPMI-1640 for T-Jurkat cells), next re-suspended in fresh complete medium and seeded into 96-well plates at a concentration of 1∙10^6 cells per well. PBMCs were additionally stimulated with magnetic beads coated with anti-CD3 and anti-CD28 antibodies (Invitrogen) at a 2:1 cell-to-bead ratio. To the experimental wells, 100 µl of the MPA derivatives were added to achieve final concentrations of 50, 25, 10, 5, 1, 0.1, and 0.01 µM. In parallel, control wells containing stained but unstimulated cells and stained, stimulated cells were prepared at the same concentration. Cell proliferation was analyzed using an LSRFortessa flow cytometer (BD Biosciences) and Kaluza C Flow Cytometry Analysis Software (Beckman Coulter). […]
Statistical analysis was conducted using GraphPad Prism 9 (GraphPad Software Inc).
Differences between MMF, MPA and its new derivatives were assessed using a two-tailed unpaired Student’s t-test, with statistical significance defined as p < 0.05. EC50 and IC50 values were determined by fitting data to a four-parameter non-linear regression model in GraphPad Prism 9. Statistical significance was evaluated using the t-test.

[1] = DPPH radical scavenging test (colorimetric); settings: concentration scavenging 50% of DPPH radicals; 10 min, room temperature, 517 nm; mean ± SD
Procedure: Antioxidative properties of the obtained MPA derivatives were assessed chemically using a colorimetric DPPH test. The IC50 value represents the scavenging activity, defined as the concentration of a compound required to scavenge 50% of DPPH radicals.
Briefly, 400 µL solution of each synthesized compound with different concentrations (20–1000 µg/mL) was added to 1.6 mL DPPH solution (100 µmol/L). After shaking, the mixture was incubated at room temperature in the dark for 10 min, and then the absorbance was measured at 517 nm. The %Scavenging activity was calculated by using the formula: […]
The scavenging activity was expressed as IC50 value, defined as the concentration (mM) of compound required for scavenging DPPH radicals by 50%. IC50 values were determined by linear regression analysis using at least three different concentrations in duplicate.
Three different concentrations were prepared for each sample, while each one was analyzed in duplicate. […] The statistical analysis was performed using Tukey’s HSD test (p < 0.05). The statistical software Statistica 10 software (StatSoft Inc., Tulsa, OK, USA) was implemented for this analysis.

| Compound | EC50 (T-Jurkat cells) | IS internal selectivity (EC50 PBMCs / EC50 T-Jurkat) (T-Jurkat cells) | IC50 [1] | SI selectivity index T-Jurkat (IC50/EC50) (T-Jurkat cells) |
| --- | --- | --- | --- | --- |
| COc1c(C)c2c(c(O)c1C/C=C(\C)CCC(=O)OCCN1CCOCC1)C(=O)OC2 [MMF, mycophenolate mofetil, reference compound] | 0.609 ± 0.03 µM | 1.704 | 19000 ± 279 µM | 1.216 |
| COc1c(C)c2c(c(O)c1C/C=C(\C)CCC(=O)O)C(=O)OC2 [MPA, Mycophenolic acid] | 0.924 ± 0.034 µM | 1.249 | 15730 ± 144 µM | 0.570 |
| COc1c(C)c2c(c(O)c1C/C=C(\C)CCC(=O)Oc1ccc3c(c1)OCO3)C(=O)OC2 [P1] | 2.01 ± 0.042 µM | 0.573 | 43570 ± 380 µM | 0.533 |
| COc1c(C)c2c(c(O)c1C/C=C(\C)CCC(=O)Oc1cc(C)ccc1C(C)C)C(=O)OC2 [P2] | 4.477 ± 0.033 µM | 0.317 | 11670 ± 113 µM | 0.552 |
| COC(=O)/C=C/c1ccccc1OC(=O)CC/C(C)=C/Cc1c(O)c2c(c(C)c1OC)COC2=O [P4] | 3.53 ± 0.045 µM | 1.380 | 308 ± 31 µM | 0.470 |
| COc1c(C)c2c(c(O)c1C/C=C(\C)CCC(=O)Oc1ccc(C=O)cc1)C(=O)OC2 [P5] | 2.357 ± 0.023 µM | 0.703 | 28200 ± 357 µM | 0.671 |
| COc1c(C)c2c(c(O)c1C/C=C(\C)CCC(=O)Oc1ccc(CCC(C)=O)cc1)C(=O)OC2 [P7] | 2.23 ± 0.044 µM | 0.470 | 124 µM | 1.083 |

Continued, in another order:

| EC50 (T-Jurkat cells) | IS internal selectivity (EC50 PBMCs / EC50 T-Jurkat) (T-Jurkat cells) | IC50 [1] | Compound | SI selectivity index T-Jurkat (IC50/EC50) (T-Jurkat cells) |
| --- | --- | --- | --- | --- |
| 0.78 ± 0.034 µM | 1.418 | 23800 ± 411 µM | COc1ccccc1OC(=O)CC/C(C)=C/Cc1c(O)c2c(c(C)c1OC)COC2=O [MP1] | 1.259 |
| 2.64 ± 0.035 µM | 2.042 | 3720 ± 230 µM | COc1cccc(OC)c1OC(=O)CC/C(C)=C/Cc1c(O)c2c(c(C)c1OC)COC2=O [MP2] | 0.662 |
| 4.458 ± 0.04 µM | 3.083 | 12200 ± 252 µM | COc1cc(C=O)cc(OC)c1OC(=O)CC/C(C)=C/Cc1c(O)c2c(c(C)c1OC)COC2=O [MP3] | 0.997 |
| 7.509 ± 0.036 µM | 0.386 | 6400 ± 311 µM | COc1cc(C=O)ccc1OC(=O)CC/C(C)=C/Cc1c(O)c2c(c(C)c1OC)COC2=O [MP4] | 0.710 |
| 4.923 ± 0.034 µM | 1.571 | 3640 ± 113 µM | COC(=O)/C=C/c1ccc(OC(=O)CC/C(C)=C/Cc2c(O)c3c(c(C)c2OC)COC3=O)c(OC)c1 [MP7] | 0.286 |
| 1.74 ± 0.023 µM | 0.665 | 6900 ± 225 µM | C=CCc1ccc(OC(=O)CC/C(C)=C/Cc2c(O)c3c(c(C)c2OC)COC3=O)c(OC)c1 [MP8] | 0.983 |
| 1.84 ± 0.043 µM | 1.283 | 373 ± 41 µM | C/C=C/c1ccc(OC(=O)CC/C(C)=C/Cc2c(O)c3c(c(C)c2OC)COC3=O)c(OC)c1 [MP9] | 1.070 |
